Measurements as given in article PMC4444576, “Prospective performance evaluation of selected common virtual screening tools. Case study: Cyclooxygenase (COX) 1 and 2” (European Journal of Medicinal Chemistry, 2015).
Like-named read-outs stand apart in the source and are kept apart here.

Experiments:
COX [1] = details: cited from earlier work; for Activity: data from the literature
[2] = biological target: T1, ram seminal vesicle COX-1 (Ovis aries, UniProt P05979); experiment: COX-1 inhibition assay (PGE2 EIA); format: biochemical; details: for inhibition at 20 µM: read-out: % inhibition at 20µM, COX-1
T1 construct: ram seminal vesicle COX-1 (1 U) (Sigma–Aldrich); purchased Sigma–Aldrich; host or cells: ram seminal vesicle (tissue of origin)
T1 sequence (P05979 25-600): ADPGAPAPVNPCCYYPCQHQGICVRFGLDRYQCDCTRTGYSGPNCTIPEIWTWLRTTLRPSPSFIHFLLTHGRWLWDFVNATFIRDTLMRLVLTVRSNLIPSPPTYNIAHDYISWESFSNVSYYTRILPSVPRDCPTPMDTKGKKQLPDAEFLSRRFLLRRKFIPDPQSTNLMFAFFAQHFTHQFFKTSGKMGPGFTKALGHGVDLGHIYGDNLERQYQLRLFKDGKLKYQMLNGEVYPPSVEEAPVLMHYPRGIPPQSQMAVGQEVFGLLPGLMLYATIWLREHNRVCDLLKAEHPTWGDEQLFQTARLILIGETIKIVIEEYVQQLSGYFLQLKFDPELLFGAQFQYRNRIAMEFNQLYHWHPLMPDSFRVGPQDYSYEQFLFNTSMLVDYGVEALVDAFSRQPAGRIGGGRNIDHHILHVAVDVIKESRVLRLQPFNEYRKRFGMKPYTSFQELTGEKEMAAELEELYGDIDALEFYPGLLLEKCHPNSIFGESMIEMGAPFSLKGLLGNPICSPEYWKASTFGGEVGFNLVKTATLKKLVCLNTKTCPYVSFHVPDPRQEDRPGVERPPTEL

human recombinant COX-2 = biological target: T2, human recombinant COX-2 (Homo sapiens, UniProt P35354); experiment: COX-2 inhibition assay (PGE2 EIA); format: biochemical; details: for inhibition at 20 µM: read-out: % inhibition at 20µM, COX-2
T2 construct: purchased Sigma–Aldrich
T2 sequence (P35354 18-604): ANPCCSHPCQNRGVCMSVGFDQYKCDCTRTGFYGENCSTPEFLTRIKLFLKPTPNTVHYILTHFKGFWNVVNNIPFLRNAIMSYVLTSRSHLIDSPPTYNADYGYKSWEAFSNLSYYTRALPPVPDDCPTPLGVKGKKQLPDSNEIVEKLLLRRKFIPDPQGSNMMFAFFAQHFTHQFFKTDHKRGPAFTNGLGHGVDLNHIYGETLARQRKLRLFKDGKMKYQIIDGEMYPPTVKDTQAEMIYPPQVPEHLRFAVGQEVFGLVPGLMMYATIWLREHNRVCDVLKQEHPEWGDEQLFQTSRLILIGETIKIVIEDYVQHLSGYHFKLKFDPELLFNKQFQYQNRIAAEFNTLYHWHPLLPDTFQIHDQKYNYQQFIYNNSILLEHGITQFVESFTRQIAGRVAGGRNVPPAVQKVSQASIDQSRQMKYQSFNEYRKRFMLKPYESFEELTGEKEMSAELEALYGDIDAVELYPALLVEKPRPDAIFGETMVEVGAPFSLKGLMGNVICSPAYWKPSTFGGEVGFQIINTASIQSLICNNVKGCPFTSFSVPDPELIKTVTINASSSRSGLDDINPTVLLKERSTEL

COX [3] = experiment: Biological testing for COX-inhibiting activity, overall outcome on both isoforms; format: biochemical; details: for COX isoform selectivity: COX-1 versus COX-2
[4] = biological testing of this study

SMILES	inhibition at 20 µM ([2]; triplicates) [%]	inhibition at 20 µM (human recombinant COX-2; 20 µM, triplicates) [%]	Activity (COX [3]; [4])	other results
CC(C(=O)O)c1cccc(C(=O)c2ccccc2)c1 (stereo not shown) [Ketoprofen]	–	–	–	Activity (COX [1]): Active [56]
Cc1ccc(Cl)c(Nc2ccccc2C(=O)O)c1Cl [Meclofenamic acid]	–	–	–	Activity (COX [1]): Active [57]
COc1ccc2c(c1)c(CC(=O)O)c(C)n2C(=O)c1ccc(Cl)cc1 [Indometacin]	–	–	–	Activity (COX [1]): Active [54]
O=C(O)CCC(=O)c1ccc(-c2ccccc2)cc1 [Fenbufen]	–	–	–	Activity (COX [1]): Active [52]
O=S(=O)([O-])CCNc1ccc(S(=O)(=O)c2ccc(NCCS(=O)(=O)[O-])cc2)cc1.[Na+].[Na+] [Baludon]	–	–	Inactive	% inhibition at 20µM, COX-1 ([2]; triplicates): -8.4 ± 8.7%; % inhibition at 20µM, COX-2 (human recombinant COX-2; 20 µM, triplicates): -3.7 ± 15.4%
C=CCOc1ccc(CC(=O)O)cc1Cl [Alclofenac]	–	–	–	Activity (COX [1]): Active [40]
CC(=O)Nc1ccc(-c2ccccc2)cc1 [p-phenylacetanilide]	–	–	Inactive	% inhibition at 20µM, COX-1 ([2]; triplicates): 5.8 ± 18.3%; % inhibition at 20µM, COX-2 (human recombinant COX-2; 20 µM, triplicates): -1.6 ± 8.3%
Cc1c(Nc2ncccc2C(=O)O)cccc1C(F)(F)F [Flunixin meglumine]	–	–	–	Activity (COX [1]): Active [53]
NS(=O)(=O)c1cc(C(=O)O)c(NCc2ccco2)cc1Cl [Furosemid]	–	–	–	% inhibition at 20µM, COX-1 ([2]; triplicates): -1.07 ± 17.3%; % inhibition at 20µM, COX-2 (human recombinant COX-2): 8.7 ± 8.9%; Activity (COX [3]): Inactive
CC(C(=O)O)c1ccc(N2Cc3ccccc3C2=O)cc1 (stereo not shown) [Indoprofen]	–	–	–	Activity (COX [1]): Active [55]
CC(C(=O)O)c1ccc2c(c1)[nH]c1ccc(Cl)cc12 (stereo not shown) [Carprofen]	–	–	–	Activity (COX [1]): Active [51]
C#C[C@]1(O)CC[C@H]2[C@@H]3CCc4cc(OC)ccc4[C@H]3CC[C@@]21C [17α-ethinylestradiol-3-methylether]	–	–	–	% inhibition at 20µM, COX-1 ([2]; triplicates): 2.6 ± 11.9%; % inhibition at 20µM, COX-2 (human recombinant COX-2): -10.9 ± 31.4%; Activity (COX [3]): Inactive
CC(C(=O)O)c1ccc(C(=O)c2ccccc2)s1 (stereo not shown) [Tiaprofenic acid]	–	–	–	Activity (COX [1]): Active [55]
[Cl-].c1ccc(-c2nn(-c3ccccc3)[n+](-c3ccccc3)n2)cc1 [Triphenyltetrazol]	–	–	Inactive	% inhibition at 20µM, COX-1 ([2]; triplicates): 13.6 ± 14.4%; % inhibition at 20µM, COX-2 (human recombinant COX-2; 20 µM, triplicates): 2.9 ± 7.3%
COc1ccc2cc3[n+](cc2c1OC)CCc1cc2c(cc1-3)OCO2 [Berberin]	–	–	–	Activity (COX [1]): Inactive [50]; Activity (COX [1]; listed as Berberine): not by direct inhibition of the enzyme
CNC(=O)Oc1ccc(-c2ccccc2)cc1 [Paxamate (4), Paxamate]	–	–	Active	IC50 [2]: 17.1 ± 3.1 µM; IC50 (human recombinant COX-2): > 20 µM; COX isoform selectivity (COX [3]): COX-1 selective
CC(C(=O)O)c1ccc(N2CC=CC2)c(Cl)c1 (stereo not shown) [Pirprofen]	–	–	–	Activity (COX [1]): Active [59]
CC(C)Cc1ccc([C@H](C)C(=O)O)cc1 [(S)-ibuprofen]	–	–	–	Activity (COX [1]): Active [61]
Cc1cccc(Nc2ccccc2C(=O)O)c1C [Mefenamic acid]	–	–	–	Activity (COX [1]): Active [58]
O=S(=O)([O-])c1ccc(N=Nc2ccc(O)cc2O)cc1.[Na+] [Acid orange 6]	–	–	Inactive	% inhibition at 20µM, COX-1 ([2]; triplicates): -1.2 ± 6.0%; % inhibition at 20µM, COX-2 (human recombinant COX-2; 20 µM, triplicates): -0.1 ± 5.6%
O=C(O)c1cc(/N=N/c2ccc(S(=O)(=O)Nc3ccccn3)cc2)ccc1O [Sulfasalazin]	–	–	–	COX-inhibition (COX [1]; no IC50 available): Evidence for COX-inhibition
COc1ccc(C(Cl)=C(c2ccc(OC)cc2)c2ccc(OC)cc2)cc1 [chlorotrianisene]	–	–	–	COX inhibition (COX [1]; identified by SEA): COX-inhibitor
C/C=C(/C(=C/C)c1ccc(OC(C)=O)cc1)c1ccc(OC(C)=O)cc1 [Dienestrol diacetate (5), Dienestrol diacetate]	–	–	Active	IC50 ([2]; average of at least two independent experiments, triplicates, read-out: IC50 COX-1): 4.2 ± 1.5 µM; IC50 (human recombinant COX-2; average of at least two independent experiments, triplicates, read-out: IC50 COX-2): 2 ± 0.9 µM; COX isoform selectivity (COX [3]): unselective COX-inhibitor; COX isoform selectivity (COX [3]; listed as dienestrol diactetate (5)): inhibited both isoforms
CC(C)(Oc1ccc(Cl)cc1)C(=O)OCCCOC(=O)c1cccnc1 [Ronifibrate]	–	–	Inactive	% inhibition at 20µM, COX-1 ([2]; triplicates): 28.2 ± 11.6%; % inhibition at 20µM, COX-2 (human recombinant COX-2; 20 µM, triplicates): 33.0 ± 5.7%

Further lines, with some results ahead:

inhibition at 20 µM ([2]; triplicates) [%]	inhibition at 20 µM (human recombinant COX-2; 20 µM, triplicates) [%]	SMILES	Activity (COX [3]; [4])	other results
0.4 ± 16.7	-5.2 ± 11.6	C#C[C@]1(O)CC[C@H]2[C@@H]3CCc4cc(O)ccc4[C@H]3CC[C@@]21C [17α-ethinylestradiol]	Inactive	–
-3.2 ± 27.9	-1.8 ± 11.1	CC(=O)Oc1ccc(C2(c3ccc(OC(C)=O)cc3)C(=O)Nc3ccccc32)cc1 [Oxyphenisatin acetate]	Inactive	–
13.8 ± 15.6	-3.2 ± 6.9	Cc1ncc(C[n+]2csc(CCO)c2C)c(N)n1 [Thiamine monochloride]	Inactive	–
-9.9 ± 25.6	-1.1 ± 4.7	NS(=O)(=O)c1cc(-c2nnn[nH]2)c(NCc2cccs2)cc1Cl [Azosemide]	Inactive	–
3.7 ± 34.6	3.5 ± 6	O=C(OCC(O)CO)c1ccccc1Nc1ccnc2cc(Cl)ccc12 (stereo not shown) [Glafenine]	Inactive	–
-4.7 ± 16.2	14.1 ± 18.4	COC(=O)c1ccccc1C(=O)c1ccc(OCCN2CCCCC2)cc1 [Pitofenone]	Inactive	–
-1.8 ± 14.3	0.1 ± 3.3	O=C(O)c1ccc(Cl)c(Cl)c1 [3,4-dichlorobenzoic acid]	Inactive	–
-15.1 ± 23.4	-8.7 ± 8.2	COCCCN1CCN(c2ccccc2OC)CC1 [Dimetholizine]	Inactive	–
12.9 ± 10.3	14.9 ± 18.3	N[C@@H](Cc1cc(I)c(Oc2cc(I)c(O)c(I)c2)c(I)c1)C(=O)O [Levothyroxin]	Inactive	–
8.3 ± 21	-11 ± 29.4	O=S(=O)(O)Oc1ccc(C(c2ccc(OS(=O)(=O)O)cc2)c2ccccn2)cc1 [Picosulfate sodium]	Inactive	–
29.1 ± 9.7	26 ± 5	CC/C(=C(/CC)c1ccc(OP(=O)(O)O)cc1)c1ccc(OP(=O)(O)O)cc1 [Fosfestrol]	Inactive	–
3.7 ± 9.3	-0.9 ± 13.6	NS(=O)(=O)c1ccc(N2CCCCS2(=O)=O)cc1 [Sulthiame]	Inactive	–
36.4 ± 17.4	7.1 ± 18.7	CC(C)(Oc1ccc(Cl)cc1)C(=O)O [Clofibric acid]	Inactive	–
-1.4 ± 7.7	10.2 ± 7	CC(C)NCC(O)COc1ccc(COCCOC(C)C)cc1 (stereo not shown) [Bisoprolol]	Inactive	–
16.6 ± 18.6	-7.4 ± 25.8	NS(=O)(=O)c1cc2c(cc1Cl)N=C(CSCc1ccccc1)NS2(=O)=O [Benzothiazide]	Inactive	–
-11 ± 9.6	12.7 ± 5.1	CNC(=C[N+](=O)[O-])NCCSCc1ccc(CN(C)C)o1 [Ranitidine]	Inactive	–
-1.7 ± 9.5	10.7 ± 10.7	O=C(N[C@H](CO)[C@H](O)c1ccc([N+](=O)[O-])cc1)C(Cl)Cl [Chloramphenicol]	Inactive	–
21 ± 10.9	-11.6 ± 32.2	C#C[C@]1(O)CC[C@H]2[C@@H]3CCC4=C(CCC(=O)C4)[C@H]3CC[C@@]21C [Norethynodrel]	Inactive	–
-2.1 ± 16.4	-0.7 ± 6.4	O=S(O)CNc1ccc(S(=O)(=O)c2ccc(NCS(=O)O)cc2)cc1 [Sulfoxone]	Inactive	–
-6.2 ± 6.1	18.4 ± 6.1	O=C(O)COc1ccc(C(=O)c2cccs2)c(Cl)c1Cl [Ticrynafen]	Inactive	–
